Measured values: patent US10793561B2, “1,8-naphthyridinone compounds and uses thereof” (NUVATION BIO INC., priority 2017, dated 2020)

Columns and labels:
[1] = molecular target: T1, adenosine A2A receptor (Homo sapiens (Human), UniProt P29274); assay: Radioligand binding competition assay, adenosine A2A receptor; settings: for inhibition at 0.3 µM: 300 nM compound, read-out: A2a binding % inh @ 300 nM; for inhibition at 3 µM / A2A radioligand binding competition assay % residual binding @ 3000 nM: 3000 nM compound; for inhibition at 3 µM: read-out: A2a binding % inh @ 3000 nM
T1 sequence (P29274 whole entry): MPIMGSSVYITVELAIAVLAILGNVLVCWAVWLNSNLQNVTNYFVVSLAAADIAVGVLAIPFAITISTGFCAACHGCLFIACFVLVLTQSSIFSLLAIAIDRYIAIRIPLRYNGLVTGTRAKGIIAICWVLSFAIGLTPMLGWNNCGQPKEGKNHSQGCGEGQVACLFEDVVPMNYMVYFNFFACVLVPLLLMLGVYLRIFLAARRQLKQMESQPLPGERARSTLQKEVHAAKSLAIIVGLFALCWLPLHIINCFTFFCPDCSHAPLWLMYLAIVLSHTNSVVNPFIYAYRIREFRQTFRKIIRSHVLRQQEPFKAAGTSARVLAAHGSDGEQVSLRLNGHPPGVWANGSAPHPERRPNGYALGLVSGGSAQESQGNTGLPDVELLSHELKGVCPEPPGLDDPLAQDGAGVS
Description: Binding of selected compounds to the adenosine A1, A2A, A2B, and A3 receptors was tested using a binding competition assay.
The general protocol for the radioligand binding competition assay was as follows. Competition binding was performed in duplicate in the wells of a 96 well plate (Master Block, Greiner, 786201) containing binding buffer (optimized for each receptor), membrane extracts (amount of protein/well optimized for each receptor), radiotracer (final concentration optimized for each receptor), and test compound. Nonspecific binding was determined by co-incubation with 200-fold excess of cold competitor. The samples were incubated in a final volume of 0.1 mL at 25° C. for 60 minutes and then filtered over filter plates. Filters were washed six times with 0.5 mL of ice-cold washing buffer (optimized for each receptor) and 50 μL of Microscint 20 (Packard) were added on each filter. The filter plates were sealed, incubated 15 min on an orbital shaker and scintillation counted with a TopCount for 30 sec/filter.
For the adenosine A2A receptor radioligand binding assay, the following modifications were made to the general protocol. GF/C filters (Perkin Elmer, 6005174), presoaked in 0.01% Brij for 2 h at room temperature were used. Filters were washed six times with 0.5 mL of ice-cold washing buffer (50 mM Tris pH 7.4) and 50 μL of Microscint 20 (Packard) was added in each well. The plates were then incubated for 15 min on an orbital shaker and then counted with a TopCount™ for 1 min/well.
Another radioligand binding assay was used to evaluate the binding affinity for the adenosine A2A receptor assay was performed in duplicate in the wells of a 384 plate. Assay buffer contained DPBS 500 mM, MgCl2 0.1 mM, and 1% DMSO. Membrane-bead suspension was prepared by mixing 25.98 μL of human adenosine A2A membrane preparation (Perkin Elmer, RBHA2AM400UA) at 33.4 pg/mL, 28 μL of ADA at 20 pg/mL, and 932 μL of SPA beads at 3.33 mg/mL) and incubated the mixture for 20 min at room temperature. Mixed 20 μL of radiotracer (^3H-SCH 58261) at 15 nM to each well containing test articles at various concentrations and centrifuge the plate at 1000 rpm for 1 minute. Added 30 μL of the membrane-bead suspension to each well. Sealed the plates and incubated for 1 hr at room temperature with vigorous mixing on a plate mixer. Plates were read on Microbeta^2 (Perkin Elmer, 2450-0010).
CHO-K1-A3 cell membranes, 1.5 μg/well; a binding buffer comprising HEPES 25 mM pH 7.4, MgCl2 5 mM, CaCl2 1 mM, 0.5% BSA; a wash buffer comprising HEPES 25 mM pH 7.4, MgCl2 5 mM, CaCl2 1 mM; a Unifilter GF/C—treated for 2 h with 0.5% BS; and 0.4 nM of ^125I-AB-MECA as the tracer. The results of the binding assay are shown in Table B1-1 and are shown as percent residual binding at a given concentration. Percent of residual binding means binding of a compound in the presence of competitor normalized to the amount of binding in the absence of competitor. […] For example, compound 1 strongly bound to A2A (30% residual binding at a concentration of 100 nM), A1 (−3% residual binding at 300 nM) and A2B, (−9% residual binding at 300 nM) but weakly bound to A3 (96% residual binding at 300 nM).

[2] = molecular target: T1, adenosine A2A receptor; assay: cAMP assay in HEK-293 cells expressing human recombinant adenosine A2A receptor; assay type: cell-based; settings: for IC50: second cAMP table; for inhibition at 0.3 µM / inhibition at 0.1 µM: HEK293; for inhibition at 0.3 µM: 300 nM compound, read-out: A2a cAMP % inh @ 300 nM; for inhibition at 0.1 µM: 100 nM compound, read-out: A2a cAMP % inh @ 100 nM
Description: The functional activity of compounds was tested using one of the two assays to detect the present of cAMP. Activation of G-protein coupled receptors (such as A2A) results in activation of adenylcyclase which converts ATP into cAMP which is used as a downstream signaling molecule. Therefore, molecules which act as GPCR (or specifically A2A receptor) antagonists cause a decrease in intracellular cAMP concentration.
Both assays used HEK-293 cells expressing human recombinant adenosine A2A receptor were grown prior to the test in media without antibiotic. Assay 1: The cells were detached by gentle flushing with PBS-EDTA (5 mM EDTA), recovered by centrifugation and suspended in assay buffer (KRH: 5 mM KCl, 1.25 mM MgSO4, 124 mM NaCl, 25 mM HEPES, 13.3 mM Glucose, 1.25 mM KH2PO4, 1.45 mM CaCl2, 0.5 g/L BSA, supplemented with Rolipram).
12 μL of cells were mixed with 6 μL of the test compound at increasing concentrations and then incubated for 10 min. Thereafter 6 μL of the reference agonist was added at a final concentration corresponding to the historical EC80. The plates were then incubated for 30 min at room temperature. After addition of the lysis buffer and 1 hour incubation, cAMP concentrations were estimated, according to the manufacturer specification, with the HTRF® kit.
Assay 2: 100 nL of test articles at 100× of final concentration were transferred to assay plate by Echo. Cells were washed twice with 5 mL of PBS […]. After aspirating the PBS and adding 1.5 mL versine, cells were incubated at 37° C. for 2-5 min. After centrifugation, 4 mL of medium was added and adjusted cell density to 5,000 cells/well with stimulation buffer. 10 μL of cells were aliquoted to the assay plate, centrifuged at 1000 rpm for 1 minute, and incubated for 60 minutes at room temperature. 5 μL 4× Eu-cAMP tracer solution and 5 μL 4× Ulight™-anti-cAMP solution were added to assay plate, followed by centrifugation and 60-minute incubation at room temperature. Plates were read on EnVision.

| Structure (SMILES) | inhibition at 0.1 µM [2] [%] | A2A radioligand binding competition assay % residual binding @ 3000 nM [1] | further results |
| --- | --- | --- | --- |
| O=c1ccc2cc(-c3cccc(Cl)c3)c(-c3ccccc3)nc2[nH]1 [Compound No. 1.31, 6-(3-chlorophenyl)-7-phenyl-1,8-naphthyridin-2(1H)-one] | – | – | inhibition at 0.3 µM [1]: 0% |
| O=c1cc[nH]c2nc(-c3ccccc3)c(-c3ccc4[nH]ncc4c3)cc12 [Compound No. 1.102, 6-(3a,7a-dihydro-1H-indazol-5-yl)-7-phenyl-1,8-naphthyridin-4(1H)-one] | – | – | IC50 [2]: 0.292 µM; inhibition at 3 µM [1]: 77% |
| O=c1ccc2cc(-c3ccncc3)c(-c3ccccc3)nc2[nH]1 [Compound No. 1.34, 7-phenyl-6-(pyridin-4-yl)-1,8-naphthyridin-2(1H)-one] | – | – | inhibition at 0.3 µM [2]: 26%; inhibition at 3 µM [1]: 30% |
| O=c1cc[nH]c2nc(-c3ccccc3)c(-c3ccc4ncncc4c3)cc12 [Compound No. 1.101] | – | – | IC50 [2]: 0.182 µM; inhibition at 3 µM [1]: 72% |
| O=c1ccc2cc(-c3cc(Cl)c4ncccc4c3)c(-c3ccccc3)nc2[nH]1 [Compound No. 1.12, 6-(8-chloroquinolin-6-yl)-7-phenyl-1,8-naphthyridin-2 (1H)-one] | 100 | 14/ND/ND/ND % | – |
| O=c1cc[nH]c2nc(-c3ccncc3)c(-c3ccc4ncccc4c3)cc12 [Compound No. 1.18, 7-(pyridin-4-yl)-6-(quinolin-6-yl)-1,8-naphthyridin-4(1H)-one] | 61 | 38/ND/ND/ND % | – |
| O=c1ccc2cc(-c3cc(Cl)c4[nH]cnc4c3)c(-c3ccccc3)nc2[nH]1 [Compound No. 1.19, 6-(7-chloro-1H-benzo[d]imidazol-5-yl)-7-phenyl-1,8-naphthyridin-2(1H)-one] | 74 | 25/ND/ND/ND % | – |
| O=c1cc[nH]c2nc(-c3ccccc3)c(-c3ccc4nccnc4c3)cc12 [Compound No. 1.15, 7-phenyl-6-(quinoxalin-6-yl)-1,8-naphthyridin-4(1H)-one] | 54 | 45/ND/ND/ND % | – |
| O=c1ccc2cc(-c3ccc4nccnc4c3)c(-c3ccccc3)nc2[nH]1 [Compound No. 1.10, 7-phenyl-6-(quinoxalin-6-yl)-1,8-naphthyridin-2(1H)-one] | 40 | 60/ND/ND/ND % | – |
| O=c1cc[nH]c2nc(-c3ccccc3)c(-c3cnc4ncccc4c3)cc12 [Compound No. 1.11, 2-phenyl-[3,3′-bi(1,8-naphthyridin)]-5(8H)-one] | 49 | 51/ND/ND/ND % | – |
| O=c1cc[nH]c2nc(-c3ccccc3)c(-c3cc(Cl)c4[nH]cnc4c3)cc12 [Compound No. 1.17, 6-(7-chloro-1H-benzo[d]imidazol-5-yl)-7-phenyl-1,8-naphthyridin-4(1H)-one] | 85 | 14/ND/ND/ND % | – |
| COc1cc(-c2cc3c(=O)cc[nH]c3nc2-c2ccccc2)cc2cccnc12 [Compound No. 1.26, 6-(8-methoxyquinolin-6-yl)-7-phenyl-1,8-naphthyridin-4(1H)-one] | 64 | – | – |
| O=c1cc[nH]c2nc(-c3cccnc3)c(-c3ccc4ncccc4c3)cc12 [Compound No. 1.28, 7-(pyridin-3-yl)-6-(quinolin-6-yl)-1,8-naphthyridin-4(1H)-one] | 46 | – | – |
| Cn1cnc2cc(-c3cc4c(=O)cc[nH]c4nc3-c3ccccc3)ccc21 [Compound No. 1.22, 6-(1-methyl-1H-benzo[d]imidazol-5-yl)-7-phenyl-1,8-naphthyridin-4(1H)-one] | 30 | 69/ND/ND/ND % | – |
| Cc1ccn(-c2nc3[nH]ccc(=O)c3cc2-c2ccc3ncccc3c2)n1 [Compound No. 1.92, 7-(3-methyl-1H-pyrazol-1-yl)-6-(quinolin-6-yl)-1,8-naphthyridin-4(1H)-one] | – | – | IC50 [2]: 0.357 µM |
| Cc1cc(-c2cc3ccc(=O)[nH]c3nc2-c2ccccc2)cc(C)n1 [Compound No. 1.33, 6-(2,6-dimethylpyridin-4-yl)-7-phenyl-1,8-naphthyridin-2(1H)-one] | – | – | inhibition at 0.3 µM [2]: 60%; inhibition at 3 µM [1]: 30% |
| O=c1cc[nH]c2nc(-n3cccn3)c(-c3ccc4ncccc4c3)cc12 [Compound No. 1.100, 7-(1H-pyrazol-1-yl)-6-(quinolin-6-yl)-1,8-naphthyridin-4(1H)-one] | – | – | IC50 [2]: 3.22 µM; inhibition at 3 µM [1]: 78% |
| Cc1cc(-c2cc3c(=O)cc[nH]c3nc2-c2ccccc2)cc(C)n1 [1.3, 6-(2,6-dimethylpyridin-4-yl)-7-phenyl-1,8-naphthyridin-4(1H)-one] | 50 | 50/ND/ND/ND % | – |
| Cn1ccc(=O)c2cc(-c3ccc4ncccc4c3)c(-c3ccccc3)nc21 [Compound No. 1.8, 1-methyl-7-phenyl-6-(quinolin-6-yl)-1,8-naphthyridin-4(1H)-one] | 0 | 106/ND/ND/ND % | – |
| O=c1ccc2cc(-c3ccc4[nH]cnc4c3)c(-c3ccccc3)nc2[nH]1 [Compound No. 1.6, 6-(1H-benzo[d]imidazol-5-yl)-7-phenyl-1,8-naphthyridin-2(1H)-one] | 43 | 57/ND/ND/ND % | – |
| O=c1cc[nH]c2nc(-c3ccco3)c(-c3ccc4[nH]cnc4c3)cc12 [Compound No. 1.27, 6-(1H-benzo[d]imidazol-5-yl)-7-(furan-2-yl)-1,8-naphthyridin-4(1H)-one] | 88 | – | – |
| Cc1ccc(-c2nc3[nH]c(=O)ccc3cc2-c2ccc3ncccc3c2)o1 [Compound No. 1.29, 7-(5-methylfuran-2-yl)-6-(quinolin-6-yl)-1,8-naphthyridin-2(1H)-one] | 77 | – | – |
| O=c1ccc2cc(-c3ccc4[nH]c(=O)[nH]c4c3)c(-c3ccccc3)nc2[nH]1 [Compound No. 1.32, 6-(2-oxo-2,3-dihydro-1H-benzo[d]imidazol-5-yl)-7-phenyl-1,8-naphthyridin-2(1H)-one] | – | – | inhibition at 0.3 µM [1]: 0% |
| O=c1cc[nH]c2nc(-c3ccccc3)c(-c3cccc(Cl)c3)cc12 [Compound No. 1.30, 6-(3-chlorophenyl)-7-phenyl-1,8-naphthyridin-4(1H)-one] | – | – | inhibition at 0.3 µM [1]: 0% |
